Data on four molecules can be found in publication PMC5564600 (Oncotarget, 2017).

Common to all, as to assay: biochemical
Holding throughout (type): binding

In assay [1] the target is T1, panel of 442 kinases (Homo sapiens, UniProt O14920).
T1 construct: purchased Ambit Biosciences (scanMAXX KINOMEscan)
T1 sequence (O14920 1-756): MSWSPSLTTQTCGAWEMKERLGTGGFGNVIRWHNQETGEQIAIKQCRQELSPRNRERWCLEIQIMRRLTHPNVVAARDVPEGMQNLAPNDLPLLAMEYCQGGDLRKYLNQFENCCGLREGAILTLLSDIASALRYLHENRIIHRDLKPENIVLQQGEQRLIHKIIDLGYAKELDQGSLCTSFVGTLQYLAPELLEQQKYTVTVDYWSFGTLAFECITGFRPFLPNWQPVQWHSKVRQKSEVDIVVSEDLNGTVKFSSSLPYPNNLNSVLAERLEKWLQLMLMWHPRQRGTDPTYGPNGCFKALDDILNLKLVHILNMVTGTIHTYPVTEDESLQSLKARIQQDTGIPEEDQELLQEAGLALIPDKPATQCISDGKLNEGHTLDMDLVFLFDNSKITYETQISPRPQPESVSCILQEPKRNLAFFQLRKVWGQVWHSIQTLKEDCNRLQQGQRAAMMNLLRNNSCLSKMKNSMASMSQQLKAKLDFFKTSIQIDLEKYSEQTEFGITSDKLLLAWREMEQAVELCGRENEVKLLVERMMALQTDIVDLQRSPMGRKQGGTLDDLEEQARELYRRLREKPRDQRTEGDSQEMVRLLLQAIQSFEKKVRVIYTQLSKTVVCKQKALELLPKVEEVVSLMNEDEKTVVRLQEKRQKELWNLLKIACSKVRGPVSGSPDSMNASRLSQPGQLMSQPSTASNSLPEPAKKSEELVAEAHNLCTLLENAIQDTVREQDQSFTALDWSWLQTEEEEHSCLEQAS
The settings on record: kinase IKK-beta; for remaining activity at 1 µM: read-out: % of control at 1 µM.

The target of assay [2] is T2, panel of 442 kinases (Homo sapiens, UniProt P00533, L858R).
T2 construct: purchased Ambit Biosciences (scanMAXX KINOMEscan)
The settings on record: EGFR(L858R); for remaining activity at 1 µM: read-out: % of control at 1 µM.

Assay [3] has as its target T3, panel of 442 kinases (Homo sapiens, UniProt P08631).
T3 construct: purchased Ambit Biosciences (scanMAXX KINOMEscan)
The settings on record: kinase HCK; for remaining activity at 1 µM: read-out: % of control at 1 µM.

Assay [4] has as its target T4, panel of 442 kinases (Homo sapiens, UniProt P53779).
T4 construct: purchased Ambit Biosciences (scanMAXX KINOMEscan)
The settings on record: kinase JNK3; for remaining activity at 1 µM: read-out: % of control at 1 µM.

Assay [5] has as its target T5, panel of 442 kinases (Homo sapiens, UniProt Q13237).
T5 construct: purchased Ambit Biosciences (scanMAXX KINOMEscan)
T5 sequence (Q13237 1-762): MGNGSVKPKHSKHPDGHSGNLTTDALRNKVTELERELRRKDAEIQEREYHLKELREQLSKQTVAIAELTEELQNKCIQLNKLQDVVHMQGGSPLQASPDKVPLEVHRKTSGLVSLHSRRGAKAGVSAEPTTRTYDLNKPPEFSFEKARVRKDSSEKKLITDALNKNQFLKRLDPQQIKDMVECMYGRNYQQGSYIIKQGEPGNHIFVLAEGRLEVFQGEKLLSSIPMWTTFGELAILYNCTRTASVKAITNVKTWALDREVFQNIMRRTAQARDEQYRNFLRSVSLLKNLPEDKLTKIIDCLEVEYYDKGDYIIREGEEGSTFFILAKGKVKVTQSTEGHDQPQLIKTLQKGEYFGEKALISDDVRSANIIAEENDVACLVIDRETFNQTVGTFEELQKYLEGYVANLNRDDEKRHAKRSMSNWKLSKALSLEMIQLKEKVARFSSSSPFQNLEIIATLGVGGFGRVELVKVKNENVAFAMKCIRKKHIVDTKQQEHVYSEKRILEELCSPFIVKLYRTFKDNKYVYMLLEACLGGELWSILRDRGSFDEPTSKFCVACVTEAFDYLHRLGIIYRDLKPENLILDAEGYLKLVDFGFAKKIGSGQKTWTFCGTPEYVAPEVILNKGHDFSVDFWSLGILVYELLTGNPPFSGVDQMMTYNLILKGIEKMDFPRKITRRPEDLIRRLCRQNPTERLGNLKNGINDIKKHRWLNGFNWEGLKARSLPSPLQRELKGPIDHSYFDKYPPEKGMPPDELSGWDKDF
The settings on record: kinase PRKG2; for remaining activity at 1 µM: read-out: PRKG2 (% of control at 1 µM).

Assay [6] deals with T6, panel of 442 kinases (Homo sapiens, UniProt Q8N4C8).
T6 construct: purchased Ambit Biosciences (scanMAXX KINOMEscan)
The settings on record: kinase MINK; for remaining activity at 1 µM: read-out: % of control at 1 µM.

The target of assay [7] is T7, panel of 442 kinases (Homo sapiens, UniProt Q9UQ88).
T7 construct: purchased Ambit Biosciences (scanMAXX KINOMEscan)
T7 sequence (Q9UQ88 1-783): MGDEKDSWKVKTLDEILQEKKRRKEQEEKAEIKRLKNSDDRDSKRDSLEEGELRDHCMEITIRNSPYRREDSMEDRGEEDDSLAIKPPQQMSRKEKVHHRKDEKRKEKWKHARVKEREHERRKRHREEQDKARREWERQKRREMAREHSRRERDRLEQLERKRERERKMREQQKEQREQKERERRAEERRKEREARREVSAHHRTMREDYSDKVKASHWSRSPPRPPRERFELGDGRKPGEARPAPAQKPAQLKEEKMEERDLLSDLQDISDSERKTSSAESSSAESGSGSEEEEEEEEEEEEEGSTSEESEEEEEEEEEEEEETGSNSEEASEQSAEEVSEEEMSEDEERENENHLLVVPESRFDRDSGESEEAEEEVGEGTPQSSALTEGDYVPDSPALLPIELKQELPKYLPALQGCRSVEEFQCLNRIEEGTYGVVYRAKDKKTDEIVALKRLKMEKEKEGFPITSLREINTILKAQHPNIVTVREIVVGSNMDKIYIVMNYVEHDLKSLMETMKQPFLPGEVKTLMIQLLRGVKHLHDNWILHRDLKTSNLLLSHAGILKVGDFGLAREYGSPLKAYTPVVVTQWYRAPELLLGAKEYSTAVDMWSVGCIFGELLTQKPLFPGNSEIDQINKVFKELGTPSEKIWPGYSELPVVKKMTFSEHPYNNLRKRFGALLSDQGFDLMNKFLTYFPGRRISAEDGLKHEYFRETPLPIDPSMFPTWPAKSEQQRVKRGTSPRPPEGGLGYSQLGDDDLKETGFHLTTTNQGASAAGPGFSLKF
The settings on record: CDC2L2; for remaining activity at 1 µM: read-out: % of control at 1 µM.

The mark [8] stands for this setting: 10 µM, read-out: % of control at 10 µM.

Structures are written as SMILES.

T6 sequence (Q8N4C8 whole entry): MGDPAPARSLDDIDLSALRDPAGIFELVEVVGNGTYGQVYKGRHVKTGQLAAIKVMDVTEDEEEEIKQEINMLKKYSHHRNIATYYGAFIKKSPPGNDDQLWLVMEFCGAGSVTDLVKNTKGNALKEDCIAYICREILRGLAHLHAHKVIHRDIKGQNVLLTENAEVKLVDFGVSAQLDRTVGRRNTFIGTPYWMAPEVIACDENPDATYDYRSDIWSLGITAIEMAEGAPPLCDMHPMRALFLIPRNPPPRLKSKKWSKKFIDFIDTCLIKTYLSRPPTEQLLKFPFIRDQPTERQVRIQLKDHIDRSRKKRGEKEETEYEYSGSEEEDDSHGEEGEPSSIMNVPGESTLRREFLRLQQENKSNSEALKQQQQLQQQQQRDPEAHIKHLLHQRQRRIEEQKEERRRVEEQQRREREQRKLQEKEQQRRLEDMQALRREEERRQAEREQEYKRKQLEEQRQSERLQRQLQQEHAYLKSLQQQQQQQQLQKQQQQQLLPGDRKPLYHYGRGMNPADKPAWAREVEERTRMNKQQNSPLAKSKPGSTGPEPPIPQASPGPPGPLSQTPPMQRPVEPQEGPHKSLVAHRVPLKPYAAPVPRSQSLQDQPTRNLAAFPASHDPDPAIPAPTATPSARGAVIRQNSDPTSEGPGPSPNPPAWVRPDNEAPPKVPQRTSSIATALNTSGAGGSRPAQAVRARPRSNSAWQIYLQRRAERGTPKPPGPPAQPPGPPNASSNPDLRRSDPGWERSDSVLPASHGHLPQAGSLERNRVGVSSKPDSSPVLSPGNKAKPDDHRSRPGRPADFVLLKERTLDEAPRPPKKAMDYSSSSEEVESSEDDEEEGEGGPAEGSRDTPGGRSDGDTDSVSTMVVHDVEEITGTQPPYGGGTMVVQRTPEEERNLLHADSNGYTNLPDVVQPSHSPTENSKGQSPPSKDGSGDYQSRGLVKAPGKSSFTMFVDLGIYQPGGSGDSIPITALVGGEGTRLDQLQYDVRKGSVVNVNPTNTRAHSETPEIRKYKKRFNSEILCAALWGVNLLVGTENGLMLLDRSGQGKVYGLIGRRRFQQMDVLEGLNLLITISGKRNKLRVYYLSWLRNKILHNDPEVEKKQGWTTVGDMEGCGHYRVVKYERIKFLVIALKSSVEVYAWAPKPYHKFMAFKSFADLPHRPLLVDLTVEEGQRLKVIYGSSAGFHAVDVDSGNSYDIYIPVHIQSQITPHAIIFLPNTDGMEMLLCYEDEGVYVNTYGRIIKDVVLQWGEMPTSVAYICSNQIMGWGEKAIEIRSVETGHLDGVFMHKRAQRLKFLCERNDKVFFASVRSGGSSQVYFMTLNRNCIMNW
T4 sequence (P53779 whole entry): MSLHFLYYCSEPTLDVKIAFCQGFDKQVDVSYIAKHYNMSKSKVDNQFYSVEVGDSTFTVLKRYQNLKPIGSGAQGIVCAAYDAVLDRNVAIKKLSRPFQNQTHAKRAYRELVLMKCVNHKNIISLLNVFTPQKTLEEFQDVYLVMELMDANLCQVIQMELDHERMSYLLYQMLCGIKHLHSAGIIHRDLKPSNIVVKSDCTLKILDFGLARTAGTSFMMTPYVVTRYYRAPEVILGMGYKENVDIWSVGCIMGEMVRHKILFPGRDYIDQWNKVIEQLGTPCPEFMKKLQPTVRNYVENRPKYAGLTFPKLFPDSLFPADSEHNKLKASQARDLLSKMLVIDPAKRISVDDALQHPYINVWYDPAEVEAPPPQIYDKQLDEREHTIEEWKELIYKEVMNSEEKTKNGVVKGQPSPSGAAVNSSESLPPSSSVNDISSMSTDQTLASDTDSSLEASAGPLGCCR
T3 sequence (P08631 whole entry): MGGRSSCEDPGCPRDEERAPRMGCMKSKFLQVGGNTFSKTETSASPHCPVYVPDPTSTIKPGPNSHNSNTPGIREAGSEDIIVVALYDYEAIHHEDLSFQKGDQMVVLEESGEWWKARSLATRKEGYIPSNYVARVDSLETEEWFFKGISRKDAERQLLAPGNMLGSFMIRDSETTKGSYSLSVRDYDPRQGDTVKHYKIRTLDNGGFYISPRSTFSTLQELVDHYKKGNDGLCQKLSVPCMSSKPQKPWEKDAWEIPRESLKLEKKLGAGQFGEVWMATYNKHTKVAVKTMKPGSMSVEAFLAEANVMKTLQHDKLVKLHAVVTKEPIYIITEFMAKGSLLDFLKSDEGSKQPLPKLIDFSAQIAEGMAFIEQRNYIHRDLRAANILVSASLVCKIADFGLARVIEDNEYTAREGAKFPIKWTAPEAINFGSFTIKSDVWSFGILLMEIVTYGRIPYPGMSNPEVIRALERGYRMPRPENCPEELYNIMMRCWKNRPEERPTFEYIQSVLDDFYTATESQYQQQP
T2 sequence (P00533 25-1210 L858R): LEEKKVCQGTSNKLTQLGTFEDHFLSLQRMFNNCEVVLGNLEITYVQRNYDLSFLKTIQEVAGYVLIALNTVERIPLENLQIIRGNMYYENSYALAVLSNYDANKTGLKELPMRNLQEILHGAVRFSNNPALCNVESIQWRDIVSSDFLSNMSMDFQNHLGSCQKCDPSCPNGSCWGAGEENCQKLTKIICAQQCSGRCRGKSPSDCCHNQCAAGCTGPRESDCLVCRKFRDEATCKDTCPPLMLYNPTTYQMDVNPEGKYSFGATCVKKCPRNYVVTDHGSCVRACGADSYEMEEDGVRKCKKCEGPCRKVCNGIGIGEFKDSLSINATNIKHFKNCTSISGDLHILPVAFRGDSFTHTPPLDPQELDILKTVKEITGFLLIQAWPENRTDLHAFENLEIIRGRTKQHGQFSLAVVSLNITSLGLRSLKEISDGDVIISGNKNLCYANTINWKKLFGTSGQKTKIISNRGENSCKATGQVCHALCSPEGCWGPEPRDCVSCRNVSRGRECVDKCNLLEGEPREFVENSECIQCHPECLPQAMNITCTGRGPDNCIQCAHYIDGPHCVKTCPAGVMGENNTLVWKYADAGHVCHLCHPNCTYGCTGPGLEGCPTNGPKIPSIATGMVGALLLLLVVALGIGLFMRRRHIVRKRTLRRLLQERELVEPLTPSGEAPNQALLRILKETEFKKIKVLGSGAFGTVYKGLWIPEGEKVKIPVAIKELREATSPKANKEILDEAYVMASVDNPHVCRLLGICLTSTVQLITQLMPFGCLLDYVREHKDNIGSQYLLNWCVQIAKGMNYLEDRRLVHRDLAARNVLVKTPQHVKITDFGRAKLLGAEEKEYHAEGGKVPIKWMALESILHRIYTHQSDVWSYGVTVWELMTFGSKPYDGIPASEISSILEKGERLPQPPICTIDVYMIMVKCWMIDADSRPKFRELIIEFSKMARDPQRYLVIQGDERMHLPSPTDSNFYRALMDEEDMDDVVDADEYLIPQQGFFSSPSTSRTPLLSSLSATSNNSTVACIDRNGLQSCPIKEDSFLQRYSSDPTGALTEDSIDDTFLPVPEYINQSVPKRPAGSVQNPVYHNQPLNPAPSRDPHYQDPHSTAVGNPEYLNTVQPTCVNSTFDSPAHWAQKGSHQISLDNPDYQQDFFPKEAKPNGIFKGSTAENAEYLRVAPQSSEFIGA

`Nc1cc(C(F)(F)F)c(-c2cc(N3CCOCC3)nc(N3CCOCC3)n2)cn1` [Buparlisib]: the remaining activity at 1 µM amounted to 92% on panel of 442 kinases [1]; 100% at panel of 442 kinases [2]; 100% on panel of 442 kinases [3]; 100% at panel of 442 kinases [4]; 93% on panel of 442 kinases [5]; 100% on panel of 442 kinases [6]. In addition, on panel of 442 kinases [7], the remaining activity at 1 µM is 100%. Also, the remaining activity at 10 µM came out at 100% on panel of 442 kinases [1] (setting [8]); 100% at panel of 442 kinases [2] (setting [8]); 100% at panel of 442 kinases [3] (setting [8]); 100% at panel of 442 kinases [4] (setting [8]); 100% on panel of 442 kinases [5] (10 µM, read-out: PRKG2 (% of control at 10 µM)); 100% at panel of 442 kinases [6] (setting [8]). Moreover, the remaining activity at 10 µM on panel of 442 kinases [7] (setting [8]) turned out to be 99%.

For the molecule `Cn1c(=O)n(-c2ccc(C(C)(C)C#N)cc2)c2c3cc(-c4cnc5ccccc5c4)ccc3ncc21` [Dactolisib, 2-methyl-2-[4-(3-methyl-2-oxo-8-quinolin-3-yl-2,3-dihydroimidazo[4,5-c]quinolin-1-yl)-phenyl] propionitrile], the remaining activity at 1 µM was 73% on panel of 442 kinases [1]; 94% on panel of 442 kinases [3]; 100% on panel of 442 kinases [4]; 84% on panel of 442 kinases [5]; 49% at panel of 442 kinases [6]; 89% on panel of 442 kinases [7].

With `COc1ncc(-c2ccc3nccc(-c4ccnnc4)c3c2)cc1NS(=O)(=O)c1ccc(F)cc1F` [Omipalisib], the remaining activity at 1 µM was 100% on panel of 442 kinases [1]; 83% on panel of 442 kinases [2]; 100% on panel of 442 kinases [3]; 90% at panel of 442 kinases [4]; 96% on panel of 442 kinases [5]; 83% on panel of 442 kinases [6]. Moreover, the remaining activity at 1 µM on panel of 442 kinases [7] stood at 100%.

For the molecule `FC(F)c1nc2ccccc2n1-c1nc(N2CCOCC2)nc(N2CCOCC2)n1` [ZSTK474, 2-(difluoromethyl)-1-[4,6-di(4-morpholinyl)-1,3,5-triazin-2-yl]-1H-benzimidazole], the remaining activity at 1 µM at panel of 442 kinases [1] came out at 88%; on panel of 442 kinases [2], 100%; at panel of 442 kinases [3], 100%; at panel of 442 kinases [4], 100%; on panel of 442 kinases [5], 95%; at panel of 442 kinases [6], 100%. The remaining activity at 1 µM at panel of 442 kinases [7] is 100%.
